Assay [1] has as its target T1, BrLTP2.1 (Brassica rapa, UniProt A0A8D9LMK4).
T1 construct: gene BRAPAZ1V2_A03P14030.2; predicted mature protein, residues 27-98 of 98 (signal peptide removed), amplified from genomic DNA; N-terminal T7-tag and C-terminal His6 kept; pET21a(+) in E. coli SHuffle T7 Express lysY
As to the kind of experiment: TNS displacement fluorescence. The class given is binding. The settings on record: 2.5 uM protein and 2.5 uM TNS, ligand 0-10 uM, pH 7.0; competitive with TNS.

The target in assay [2] is T1, BrLTP2.1. As to the kind of experiment: TNS displacement fluorescence; protein lipid overlay. Format: binding. The settings on record: 2.5 uM protein and 2.5 uM TNS, ligand 0-10 uM, pH 7.0; competitive with TNS.

T1 sequence (A0A8D9LMK4 entry or part of it): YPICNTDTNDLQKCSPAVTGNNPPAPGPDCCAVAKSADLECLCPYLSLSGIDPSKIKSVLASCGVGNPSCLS

As for `CCCCCCCCCCCCCCCC(=O)O` [palmitic acid], in assay [1], the TNS displacement fluorescence result is listed as “Each of the three free fatty acids tested strongly reduced TNS-dependent fluorescence”.

On to `CCCCCCCCCCCCCCCCCC(=O)O` [stearic acid], for which the “TNS displacement fluorescence; protein lipid overlay” value in assay [2] was “Each of the three free fatty acids tested strongly reduced TNS-dependent fluorescence”.

These data come from PMC6255697, “The major nectar protein of Brassica rapa is a non-specific lipid transfer protein, BrLTP2.1, with strong antifungal activity” (Journal of Experimental Botany, 2018).
